“And” between values parts separate entries of the source, which are not always exact repeats. Equal entries are not always repeated.
Experiments:
[1] = system: C57B1/Ks db/db mouse; test: Plasma insulin concentration; type: in vivo; conditions: db/db mice
Procedure: Inflammation is also a feature of type II diabetic animals and man. […] However, as a result of the C57B1/Ks genetic background rather than the C57B1/6, the mice show loss of pancreatic function from around 6/7 weeks of age and by 10 weeks show frank diabetes.
The mice were given chow diet (Bantin and Kingman, no 1 diet) and water ad lib. The mice were kept under controlled lighting conditions (lights on 08.00 h, 12 h light/12 h dark) and at a room temperature of 21°±1° C.
• Daily: Food and water intake • Twice weekly: Body weight and glucose • Day 1: Weigh mice, dose compounds, provide measured amount of food, provide measured amount of water • Days 2, 5 and 8: Fed blood glucose concentration • Day 9: Oral glucose tolerance • Days 12 and 16: Fed blood glucose concentration • Day 19: 24 hr glycaemic assay • Days 22, 26 and 29: Fed blood glucose concentration • Day 33: 24 hr glycaemic assay • Day 38: Fed blood glucose concentration • Day 39: Body composition by Dexascan in anaesthetised mice • Day 41: Termination. Take blood samples for glucose, free fatty acids, triglycerides, cholesterol, insulin and HbA

[2] = system: 3T3L1 cells; test: Induction of adipocyte differentiation (Oil red O); type: cell-based; conditions: treated for 8 days
Procedure: In vitro vascular studies were carried out in rat isolated aortae by wire myography. PPARγ activation was investigated using reporter gene assays, a PPARγ competition-binding assay and an adipogenesis assay.
Cells were fixed and stained with Oil red O to identify fat droplets, to the presence of which indicates differentiation of fibroblasts into adipocytes. […] […].

[3] = system: aorta; test: Chronic treatment of rats, vascular responses in isolated arteries; type: in vivo, rat; conditions: aorta of rats treated for 2 weeks
[4] = system: dietary induced obese (DIO) mouse model; test: Thermic response to food (energy expenditure after Complan meal), chronic dosing study; type: in vivo; parameters: Thermic response to food: unit not given here; conditions: for Thermic response to food: listed as pure THCV
Source text: Once the acute studies were complete the mice were grouped in two groups of five mice for the chronic dosing study. Dosing was daily by oral gavage at 09:00-10:00.
Energy expenditure consists of basal metabolic rate, exercise-induced energy expenditure, and non-exercise thermogenesis. The latter is the most likely area to be affected by anti-obesity agents. Non-exercise thermogenesis includes the thermic response to food, which in rodents can be measured by examining energy expenditure in response to a meal. This was measured after an oral dose of complan (see methods).

Structure (SMILES): C=C(C)[C@@H]1CCC(C)=C[C@H]1c1c(O)cc(CCCCC)cc1O [CBD, cannabidiol]
- Plasma insulin during the 24 h glucose profiles [1]: no consistent effect was seen
- Differentiation of fibroblasts into adipocytes (Oil Red O staining of fat droplets) [2]: signs of fat droplet accumulation were apparent at all concentrations tested
- Maximal response to methoxamine [3]: 1.63±0.21 g increase tension
- Potency of acetylcholine (pEC50) [3]: 5.37±0.40

Structure (SMILES): CCCc1cc(O)c2c(c1)OC(C)(C)[C@@H]1CCC(C)=C[C@@H]21 [THCV, tetrahydrocannabivarin]
- Thermic response to food ([4]; DIO mice, days 15-17, 0.3 mg·kg−1 p.o., Hour 0.22): 0.67 and 0.91 and 1.26
- Thermic response to food ([4]; DIO mice, days 15-17, 0.3 mg·kg−1 p.o., Hour 0.44): 1.78 and 1.70 and 1.98
- Thermic response to food ([4]; DIO mice, days 15-17, 0.3 mg·kg−1 p.o., Hour 0.67): 2.30 and 2.06 and 2.49
- Thermic response to food ([4]; DIO mice, days 15-17, 0.3 mg·kg−1 p.o., Hour 0.89): 2.51 and 2.42
- Thermic response to food ([4]; DIO mice, days 15-17, 0.3 mg·kg−1 p.o., Hour 1.11): 2.51 and 2.74 and 2.64
- Thermic response to food ([4]; DIO mice, days 15-17, 0.3 mg·kg−1 p.o., Hour 1.33): 2.50 and 2.82 and 2.67
- Thermic response to food ([4]; DIO mice, days 15-17, 0.3 mg·kg−1 p.o., Hour 1.56): 2.53 and 2.81 and 3.13
- Thermic response to food ([4]; DIO mice, days 15-17, 0.3 mg·kg−1 p.o., Hour 1.78): 2.54 and 2.76 and 3.31
- Thermic response to food ([4]; DIO mice, days 15-17, 0.3 mg·kg−1 p.o., Hour 2.00): 2.45 and 2.62 and 3.18
- Thermic response to food ([4]; DIO mice, days 15-17, 0.3 mg·kg−1 p.o., Hour 2.22): 2.61 and 2.74 and 3.44
- Thermic response to food ([4]; DIO mice, days 15-17, 0.3 mg·kg−1 p.o., Hour 2.44): 2.71 and 2.74 and 3.18
- Thermic response to food ([4]; DIO mice, days 15-17, 0.3 mg·kg−1 p.o., Hour 2.67): 2.66 and 2.83 and 3.10
- Thermic response to food ([4]; DIO mice, days 15-17, 0.3 mg·kg−1 p.o., Hour 2.89): 2.71 and 3.01 and 3.09
- Thermic response to food ([4]; DIO mice, days 15-17, 0.3 mg·kg−1 p.o., Hour 3.11): 2.68 and 3.16 and 3.02
- Thermic response to food ([4]; DIO mice, days 15-17, 0.3 mg·kg−1 p.o., Hour 3.33): 2.68 and 3.34 and 3.04
- Thermic response to food ([4]; DIO mice, days 15-17, 0.3 mg·kg−1 p.o., Hour 4.00): 2.70 and 3.49 and 3.13
- Thermic response to food, effect in words ([4]; DIO mice, days 15-17, chronic-study doses (rimonabant 10, pure THCV 0.3 mg·kg−1 p.o.)): have an affect over 2 h
- Thermic response to food ([4]; mouse, in vivo, po): 2.61 and 3.49 and 3.02 and 2.43 and 3.48 and 3.03

Reference: patent publication US20130245110A1, “USE FOR CANNABINOIDS” (priority 2008, published 2013)
